Where “and” joins values, the source holds several entries; their conditions need not be identical. Equal values may be shown once.
How the values were obtained:
Format in all cases: toxicity, cell-based
HEK-293T = assay: Incucyte cell viability with HEK293T; settings: human, 10 µM, compound concentration 10 uM
Fibroblast = assay: Incucyte cell viability with human fibroblast; settings: 10 µM, compound concentration 10 uM
U2OS = assay: Incucyte cell viability with U2OS; settings: human, 10 µM, compound concentration 10 uM
Also: unitless GR value; below 1 slowed growth and below 0 cell loss.

Row | Structure (SMILES) | Growth Rate (HEK-293T; 0 h, replicate number 2) | Growth Rate (HEK-293T; 6 h, replicate number 2) | Growth Rate (HEK-293T; 12 h, replicate number 2) | Growth Rate (Fibroblast; 6 h, replicate number 1) | Growth Rate (Fibroblast; 12 h, replicate number 1) | Growth Rate (Fibroblast; 18 h, replicate number 1) | Growth Rate (Fibroblast; 24 h, replicate number 1) | Growth Rate (U2OS; 0 h, replicate number 1) | Growth Rate (U2OS; 0 h, replicate number 2) | Growth Rate (U2OS; 6 h, replicate number 1) | Growth Rate (U2OS; 6 h, replicate number 2) | Growth Rate (U2OS; 12 h, replicate number 1) | Growth Rate (U2OS; 24 h, replicate number 1) | Growth Rate (Fibroblast; 6 h, replicate number 2) | Growth Rate (Fibroblast; 12 h, replicate number 2) | Growth Rate (HEK-293T; 18 h, replicate number 1) | Growth Rate (HEK-293T; 18 h, replicate number 2) | Growth Rate (HEK-293T; 24 h, replicate number 1) | Growth Rate (HEK-293T; 24 h, replicate number 2) | Growth Rate (Fibroblast; 18 h, replicate number 2) | also measured
1 | O[C@]1(C(F)(F)F)CCCC[C@H]1Nc1ccc(F)cc1 [BAY-390] | -0.23 | 0.5 | 0.95 | 0.19 | 0.69 | 0.78 | 0.89 | -0.18 | 0.62 | 0.4 | 0.7 | 0.57 | 0.74 | – | – | – | – | – | – | – | Growth Rate (HEK-293T; 0 h, replicate number 1): -0.2; Growth Rate (Fibroblast; 0 h, replicate number 2): 0.2; Growth Rate (U2OS; 12 h, replicate number 2): 0.8; Growth Rate (U2OS; 18 h, replicate number 1): 0.69; Growth Rate (U2OS; 24 h, replicate number 2): 0.93
2 | CCNC(=O)c1ccc2c(c1)NC(=O)/C2=C(\Nc1ccc(CN(C)C)cc1)c1ccccc1 | -1 | 0.16 | 0.83 | – | – | – | – | – | 0.96 | 0.67 and 0.82 | 1 | 0.63 and 0.95 | 0.84 and 0.87 | 0.09 | 0.8 | – | – | – | – | – | Growth Rate (Fibroblast; 0 h, replicate number 2): 0.87; Growth Rate (U2OS; 12 h, replicate number 2): 0.85; Growth Rate (U2OS; 18 h, replicate number 1): 0.75 and 0.9; Growth Rate (U2OS; 18 h, replicate number 2): 0.8; Growth Rate (U2OS; 24 h, replicate number 2): 0.83
3 | CC(C)N1CCN(Cc2cnc(-c3cc(-c4cccc5[nH]ccc45)cc4[nH]ncc34)o2)CC1 [NEMIRALISIB] | – | -0.48 | -0.01 | -0.06 | 0.04 | 0.27 | 0.3 | -0.99 | 0.94 | – | 0.36 | 0.83 | – | – | 0.83 | 0.26 | 0.15 | 0.34 | 0.32 | 0.75 | Growth Rate (HEK-293T; 6 h, replicate number 1): -0.37; Growth Rate (HEK-293T; 12 h, replicate number 1): -0.09; Growth Rate (Fibroblast; 24 h, replicate number 2): 0.85; Growth Rate (U2OS; 12 h, replicate number 2): 0.64; Growth Rate (U2OS; 18 h, replicate number 2): 0.64; Growth Rate (U2OS; 24 h, replicate number 2): 0.6
4 | CC(C)Oc1ccc(F)c(-c2cnc(N)c(C(=O)Nc3cnccc3N3CCC[C@@H](C(=O)O)C3)n2)c1 | 0.37 | 0.61 | -0.28 | -1 | – | – | – | – | -0.44 | – | – | – | 0.84 | – | – | -0.11 | -0.06 | -0.01 | 0.05 | 0.97 | Growth Rate (HEK-293T; 12 h, replicate number 1): -0.19; Growth Rate (Fibroblast; 0 h, replicate number 1): 0.44; Growth Rate (Fibroblast; 24 h, replicate number 2): 0.61
5 | CC/C(=C(\c1ccc(O)cc1)c1ccc(OCCN(C)C)cc1)c1ccccc1 [AFIMOXIFENE] | – | -0.67 | -0.46 | -0.74 | – | – | – | – | -0.96 | – | – | – | 0.9 | 0.4 | 0.3 | -0.68 | -0.33 | -0.63 | -0.26 | 0.13 | Growth Rate (HEK-293T; 6 h, replicate number 1): -0.92; Growth Rate (HEK-293T; 12 h, replicate number 1): -0.87; Growth Rate (Fibroblast; 0 h, replicate number 1): 0.22; Growth Rate (Fibroblast; 24 h, replicate number 2): 0.18
6 | N[C@@H]1CCCC[C@H]1Oc1ccc2ncc(-c3cc4ccccc4o3)n2n1 | – | -0.97 | -0.77 | -0.12 | -0.57 | -0.67 | -0.62 | -0.99 | – | -0.96 | -0.91 | -0.95 | -0.75 | -0.77 | -0.62 | -0.66 | -0.63 | -0.53 | -0.43 | -0.65 | Growth Rate (HEK-293T; 6 h, replicate number 1): -0.98; Growth Rate (HEK-293T; 12 h, replicate number 1): -0.86; Growth Rate (Fibroblast; 0 h, replicate number 1): -1; Growth Rate (Fibroblast; 24 h, replicate number 2): -0.55; Growth Rate (U2OS; 12 h, replicate number 2): -0.8; Growth Rate (U2OS; 18 h, replicate number 1): -0.88; Growth Rate (U2OS; 18 h, replicate number 2): -0.72; Growth Rate (U2OS; 24 h, replicate number 2): -0.63
7 | Cc1nc(-c2ccc(C(F)(F)F)cc2)sc1C(=O)NCc1ccc(OC(C)(C)C(=O)O)cc1 [GW590735] | 0.73 | 0.83 | 0.93 | 0.76 | 0.82 | 0.71 | 0.83 | -0.11 | – | 0.91 | – | 0.91 | 0.97 | 0.99 | – | – | 0.92 | – | 0.72 | – | Growth Rate (HEK-293T; 0 h, replicate number 1): 0.96; Growth Rate (Fibroblast; 0 h, replicate number 2): 0.77; Growth Rate (U2OS; 18 h, replicate number 1): 0.93
8 | Cc1c(NC(=O)COc2ccc(Cl)cc2C(=O)c2cc(F)cc(C(F)(F)F)c2)ccc(C(=O)O)c1F [BI 2540] | 0.89 and 0.62 | 0.58 | 0.77 | 0.41 | 0.77 | 0.85 | 0.87 and 0.99 | 0.29 | 0.41 | 0.84 | -0.88 | 0.64 | 0.89 and 0.98 | 0.6 | 0.54 | 0.97 | 0.75 | 0.91 | 0.78 | 0.78 | Growth Rate (HEK-293T; 0 h, replicate number 1): 0.45; Growth Rate (HEK-293T; 6 h, replicate number 1): 0.71; Growth Rate (Fibroblast; 0 h, replicate number 2): -0.2; Growth Rate (Fibroblast; 24 h, replicate number 2): 0.97; Growth Rate (U2OS; 18 h, replicate number 1): 0.91
9 | O=c1cc(-c2cc(F)c(Cl)nc2Cl)[nH]c2c(-c3ccccc3)c(C(F)(F)F)nn12 | – | 0.52 | 0.74 | – | -0.36 | 0.57 | 0.39 | – | – | 0.78 | – | – | – | – | – | 0.93 | 0.98 | 0.8 | 0.94 | – | Growth Rate (HEK-293T; 0 h, replicate number 1): 0.89; Growth Rate (Fibroblast; 0 h, replicate number 1): -0.22; Growth Rate (Fibroblast; 24 h, replicate number 2): 1; Growth Rate (U2OS; 18 h, replicate number 2): -0.41
10 | CCOC(=O)C1=C[C@]2(CC)CCCN3CCc4c(n1c1ccccc41)[C@@H]32 [VINPOCETINE] | 0.71 | – | 0.83 | 0.56 | -1 | – | – | -0.74 | -0.97 | – | 0.42 | – | – | -0.97 | 0.32 | 0.95 | 0.89 | 0.94 | – | 0.85 | Growth Rate (HEK-293T; 6 h, replicate number 1): 0.46; Growth Rate (HEK-293T; 12 h, replicate number 1): 1; Growth Rate (U2OS; 12 h, replicate number 2): 0.83; Growth Rate (U2OS; 18 h, replicate number 2): 0.73; Growth Rate (U2OS; 24 h, replicate number 2): 0.79
